From patent publication US9840501B2, “Morpholin-pyridine derivatives” (Hoffmann-La Roche Inc., priority 2014, dated 2017)

Tests used:
mouse TAAR1 = mouse TAAR1 (Mus musculus (Mouse), UniProt Q923Y8); experiment: Radioligand binding assay on mouse TAAR1; conditions: mouse TAAR1, membranes of stably transfected HEK-293 cells; first value of the pair; read-out: Ki (μM) mouse/rat: mouse
Experimental: (§1) For the construction of expression plasmids the coding sequences of human, rat and mouse TAAR 1 were amplified from genomic DNA essentially as described by Lindemann et al.. The Expand High Fidelity PCR System (Roche Diagnostics) was used with 1.5 mM Mg^2+ and purified PCR products were cloned into pCR2.1-TOPO cloning vector (Invitrogen) following the instructions of the manufacturer. PCR products were subcloned into the pIRESneo2 vector (BD Clontech, Palo Alto, Calif.), and expression vectors were sequence verified before introduction in cell lines.
(§2) For the generation of stably transfected cell lines HEK293 cells were transfected with the pIRESneo2 expression plasmids containing the TAAR coding sequences (described above) with Lipofectamine 2000 (Invitrogen) according to the instructions of the manufacturer, and 24 hrs post transfection the culture medium was supplemented with 1 mg/ml G418 (Sigma, Buchs, Switzerland). After a culture period of about 10 d clones were isolated, expanded and tested for responsiveness to trace amines (all compounds purchased from Sigma) with the cAMP Biotrak Enzyme immunoassay (EIA) System (Amersham) following the non-acetylation EIA procedure provided by the manufacturer.
Radioligand Binding Assay on Mouse TAAR1
(§3) Membrane Preparation and Radioligand Binding.
(§4) Cells were released from culture flasks using trypsin/EDTA, harvested, washed twice with ice-cold PBS (without Ca^2+ and Mg^2+), pelleted at 1,000 rpm for 5 min at 4° C., frozen and stored at −80° C. Frozen pellets were suspended in 20 ml HEPES-NaOH (20 mM, pH 7.4) containing 10 mM EDTA and homogenized with a Polytron (PT 6000, Kinematica) at 14′000 rpm for 20 s. The homogenate was centrifuged at 48,000×g for 30 min at 4° C. Subsequently, the supernatant was removed and discarded, and the pellet resuspended in 20 ml HEPES-NaOH (20 mM, pH 7.4) containing 0.1 mM EDTA using the Polytron (20 s at 14′000 rpm). This procedure was repeated and the final pellet resuspended in HEPES-NaOH containing 0.1 mM EDTA and homogenized using the Polytron. Typically, aliquots of 2 ml membrane portions were stored at −80° C. With each new membrane batch the dissociation constant (Kd) was determined via a saturation curve. […] Nonspecific binding was defined as the amount of ^3[H]—(S)-4-[(ethyl-phenyl-amino)-methyl]-4,5-dihydro-oxazol-2-ylamine bound in the presence of 10 μM unlabeled ligand. All compounds were tested at a broad range of concentrations (10 pM to 10 μM) in duplicates. […] The 96 deep well plates were incubated for 1 hr at 4° C. Incubations were terminated by rapid filtration through Unifilter-96 plates (Packard Instrument Company) and glass filters GF/C (Perkin Elmer) presoaked for 1 hr in polyethylenimine (0.3%) and washed 3 times with 1 ml of cold binding buffer. After addition of 45 μl of Microscint 40 (PerkinElmer) the Unifilter-96 plate was sealed and after 1 hr the radioactivity counted using a TopCount Microplate Scintillation Counter (Packard Instrument Company).

rat TAAR1 = rat TAAR1 (Rattus norvegicus (Rat), UniProt Q923Y9); experiment: Radioligand binding assay on rat TAAR1; conditions: rat TAAR1, membranes of stably transfected HEK-293 cells; second value of the pair; read-out: Ki (μM) mouse/rat: rat
rat TAAR1, sequence (Q923Y9 whole entry): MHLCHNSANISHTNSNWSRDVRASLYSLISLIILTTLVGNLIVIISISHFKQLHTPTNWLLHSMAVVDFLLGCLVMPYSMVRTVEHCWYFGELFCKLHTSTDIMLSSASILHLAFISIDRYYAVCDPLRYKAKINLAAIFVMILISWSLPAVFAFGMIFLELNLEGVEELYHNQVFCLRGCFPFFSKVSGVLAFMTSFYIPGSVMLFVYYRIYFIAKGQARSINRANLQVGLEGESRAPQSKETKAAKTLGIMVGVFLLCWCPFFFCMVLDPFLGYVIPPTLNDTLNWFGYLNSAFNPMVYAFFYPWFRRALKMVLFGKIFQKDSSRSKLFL
Experimental: as §1, §2
Radioligand Binding Assay on Rat TAAR1
as §3
as §4, with “1′000” for “1,000”, “48′000×g” for “48,000×g”

mouse TAAR1, sequence (Q923Y8 whole entry): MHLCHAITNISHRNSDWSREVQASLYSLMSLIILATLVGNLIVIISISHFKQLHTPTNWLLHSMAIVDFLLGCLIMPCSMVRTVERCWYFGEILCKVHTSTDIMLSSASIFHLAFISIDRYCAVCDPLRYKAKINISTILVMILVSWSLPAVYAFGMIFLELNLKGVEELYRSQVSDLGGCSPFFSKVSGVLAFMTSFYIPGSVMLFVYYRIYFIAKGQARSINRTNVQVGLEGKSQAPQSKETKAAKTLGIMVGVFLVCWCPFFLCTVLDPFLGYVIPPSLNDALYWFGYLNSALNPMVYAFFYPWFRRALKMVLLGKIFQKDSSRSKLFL

Ki (mouse TAAR1) | Ki (rat TAAR1) | Compound
0.0017 µM | 0.071 µM | Clc1ccc(Nc2ccc(C3CNCCO3)nc2)cc1 (racemic) [Example 1, (RS)—N-(4-Chlorophenyl)-6-morpholin-2-yl-pyridin-3-amine]
0.0018 µM | 0.0437 µM | Brc1ccc(Nc2ccc(C3CNCCO3)nc2)cc1 (racemic) [Example 2, (RS)—N-(4-Bromophenyl)-6-morpholin-2-yl-pyridin-3-amine]
0.0048 µM | 0.374 µM | CCOc1ccc(Nc2ccc(C3CNCCO3)nc2)cc1 (racemic) [Example 3, (RS)—N-(4-Ethoxyphenyl)-6-morpholin-2-yl-pyridin-3-amine]
0.0065 µM | 0.372 µM | Fc1ccc(Nc2ccc(C3CNCCO3)nc2)cc1 (racemic) [Example 5, (RS)—N-(4-Fluorophenyl)-6-morpholin-2-yl-pyridin-3-amine]
0.0038 µM | 0.0745 µM | O=C(Nc1ccc(C2CNCCO2)nc1)c1ccc(Cl)cc1 (racemic) [Example 7, (RS)-4-Chloro-N-(6-morpholin-2-yl-3-pyridyl)benzamide]
0.0071 µM | 0.0106 µM | O=C(Nc1ccc(F)cc1)Nc1ccc(C2CNCCO2)nc1 (racemic) [Example 9, (RS)-1-(4-Fluorophenyl)-3-(6-morpholin-2-yl-3-pyridyl)urea]
0.0042 µM | 0.0029 µM | O=C(Nc1ccc(C(F)(F)F)cc1)Nc1ccc(C2CNCCO2)nc1 (racemic) [Example 10, (RS)-1-(6-Morpholin-2-yl-3-pyridyl)-3-[4-(trifluoromethyl)phenyl]urea]
0.0038 µM | 0.0047 µM | O=C(Nc1ccc(Cl)cc1)Nc1ccc(C2CNCCO2)nc1 (racemic) [Example 11, (RS)-1-(4-Chlorophenyl)-3-(6-morpholin-2-yl-3-pyridyl)urea]
 | 0.0889 µM | O=C(Nc1ccc(C2CNCCO2)nc1)c1cccc(Cl)c1 (racemic) [Example 12, (RS)-3-Chloro-N-(6-morpholin-2-yl-3-pyridyl)benzamide]
0.0124 µM | 0.328 µM | CCOc1ccc(C(=O)Nc2ccc(C3CNCCO3)nc2)cc1 (racemic) [Example 13, (RS)-4-Ethoxy-N-(6-morpholin-2-yl-3-pyridyl)benzamide]
0.0084 µM | 0.917 µM | O=C(Nc1ccc(C2CNCCO2)nc1)c1ccc(F)cc1 (racemic) [Example 14, (RS)-4-Fluoro-N-(6-morpholin-2-yl-3-pyridyl)benzamide]
 | 0.145 µM | O=C(Nc1ccc(C2CNCCO2)nc1)c1ccnc(C(F)(F)F)c1 (racemic) [Example 16, (RS)—N-(6-Morpholin-2-yl-3-pyridyl)-2-(trifluoromethyl)pyridine-4-carboxamide]
0.0382 µM | 0.466 µM | FC(F)(F)c1nccc(Nc2ccc(C3CNCCO3)nc2)n1 (racemic) [Example 17, (RS)—N-(6-Morpholin-2-yl-3-pyridyl)-2-(trifluoromethyl)pyrimidin-4-amine]
0.0186 µM | 1.45 µM | Clc1ccc(Nc2cnc(C3CNCCO3)nc2)cc1 (racemic) [Example 70, (RS)—N-(4-Chlorophenyl)-2-morpholin-2-yl-pyrimidin-5-amine]
0.0072 µM | 0.195 µM | FC(F)(F)c1ccc(Nc2cnc(C3CNCCO3)nc2)cc1 (racemic) [Example 71, (RS)-2-Morpholin-2-yl-N-[4-(trifluoromethyl)phenyl]pyrimidin-5-amine]
0.0058 µM | 4.93 µM | O=C(Nc1cnc(C2CNCCO2)nc1)c1ccc(Cl)cc1 (racemic) [Example 72, (RS)-4-Chloro-N-(2-morpholin-2-ylpyrimidin-5-yl)benzamide]
 | 0.066 µM | CCOc1n[nH]c(C(=O)Nc2ccc(C3CNCCO3)nc2)c1Cl (racemic) [Example 74, (RS)-4-Chloro-3-ethoxy-N-(6-morpholin-2-yl-3-pyridyl)-1H-pyrazole-5-carboxamide]
 | 0.0133 µM | O=C(Nc1ccc(C2CNCCO2)nc1)c1[nH]nc(OCC(F)(F)F)c1Cl (racemic) [Example 75, (RS)-4-Chloro-N-(6-morpholin-2-yl-3-pyridyl)-3-(2,2,2-trifluoroethoxy)-1H-pyrazole-5-carboxamide]
 | 0.122 µM | FC(F)(F)c1ccc(Nc2cnc(C3CNCCO3)c(Cl)c2)nc1 (racemic) [Example 103, (RS)-5-Chloro-6-morpholin-2-yl-N-[5-(trifluoromethyl)-2-pyridyl]pyridin-3-amine]
0.0241 µM |  | CCCc1n[nH]c(C(=O)Nc2cnc(C3CNCCO3)c(Cl)c2)c1Cl (racemic) [Example 108, (RS)-4-Chloro-N-(5-chloro-6-morpholin-2-yl-3-pyridyl)-3-propyl-1H-pyrazole-5-carboxamide]
 | 1.1 µM | Fc1cc(Nc2ccc(Cl)cn2)cnc1C1CNCCO1 (racemic) [Example 110, (RS)—N-(5-Chloro-2-pyridyl)-5-fluoro-6-morpholin-2-yl-pyridin-3-amine]
 | 0.0338 µM | O=C(Nc1ccc([C@@H]2CNCCO2)nc1)c1cccc(Cl)c1 [Example 32, 3-Chloro-N-[6-[(2S)-morpholin-2-yl]-3-pyridyl]benzamide]
 | 0.147 µM | O=C(Nc1ccc([C@@H]2CNCCO2)nc1)c1ccnc(C(F)(F)F)c1 [Example 34, N-[6-[(2S)-Morpholin-2-yl]-3-pyridyl]-2-(trifluoromethyl)pyridine-4-carboxamide]
 | 0.0922 µM | O=C(Nc1ccc([C@H]2CNCCO2)nc1)c1cccc(Cl)c1 [Example 52, 3-Chloro-N-[6-[(2R)-morpholin-2-yl]-3-pyridyl]benzamide]
 | 0.283 µM | O=C(Nc1ccc([C@H]2CNCCO2)nc1)c1ccnc(C(F)(F)F)c1 [Example 54, N-[6-[(2R)-Morpholin-2-yl]-3-pyridyl]-2-(trifluoromethyl)pyridine-4-carboxamide]
 | 0.123 µM | CCOc1n[nH]c(C(=O)Nc2ccc([C@H]3CNCCO3)nc2)c1Cl [Example 100, 4-Chloro-3-ethoxy-N-[6-[(2R)-morpholin-2-yl]-3-pyridyl]-1H-pyrazole-5-carboxamide]
 | 0.0225 µM | O=C(Nc1ccc([C@H]2CNCCO2)nc1)c1[nH]nc(OCC(F)(F)F)c1Cl [Example 101, 4-Chloro-N-[6-[(2R)-morpholin-2-yl]-3-pyridyl]-3-(2,2,2-trifluoroethoxy)-1H-pyrazole-5-carboxamide]
 | 0.0176 µM | O=C(Nc1ccc([C@@H]2CNCCO2)nc1)c1[nH]nc(OCC(F)(F)F)c1Cl [Example 105, 4-Chloro-N-[6-[(2S)-morpholin-2-yl]-3-pyridyl]-3-(2,2,2-trifluoroethoxy)-1H-pyrazole-5-carboxamide]
 | 0.137 µM | CCOc1n[nH]c(C(=O)Nc2ccc([C@@H]3CNCCO3)nc2)c1Cl [Example 106, 4-Chloro-3-ethoxy-N-[6-[(2S)-morpholin-2-yl]-3-pyridyl]-1H-pyrazole-5-carboxamide]
